Experimental data from PubChem BioAssay AID1259407 (Chemical Carcinogenesis Research Information System (CCRIS), 2018).
Activity calls are given as the source filed them. The rule behind the calls is not given here.

Tested on: CCRIS mutagenicity, Ames/micronucleus/aberration tests
Test: CCRIS mutagenicity studies
Details: Test System: AMES SALMONELLA TYPHIMURIUM
[1] = Strain/Indicator: TA98, Metabolic Activation: NONE, Method: PREINCUBATION
[2] = Strain/Indicator: TA100, Metabolic Activation: NONE, Method: PREINCUBATION

C1=Cc2c3cc4ccccc4cc3cc3cccc1c23
mutagenic call (Strain/Indicator: TA98, Metabolic Activation: NONE, Method: STANDARD PLATE): active; positive
mutagenic call (Strain/Indicator: TA98, Metabolic Activation: RAT, LIVER, S-9, AROCLOR 1254 (0.127 OR 1.27 MG S-9 PROTEIN), Method: STANDARD PLATE): active; positive

O=C1C=C(c2nnc(NC(=O)c3ccccc3)s2)C(=O)C=C1Nc1ccc([N+](=O)[O-])cc1
mutagenic call (Strain/Indicator: TA100, Metabolic Activation: NONE, Method: STANDARD PLATE): active; positive

NC(=O)c1ccccc1C(N)=O
mutagenic call (Strain/Indicator: TA98, Metabolic Activation: HAMSTER, LIVER, S-9, AROCLOR 1254 (10%), Method: PREINCUBATION): inactive; negative
mutagenic call [1]: inactive; negative
mutagenic call (Strain/Indicator: TA98, Metabolic Activation: RAT, LIVER, S-9, AROCLOR 1254 (10%), Method: PREINCUBATION): inactive; negative
mutagenic call (Strain/Indicator: TA100, Metabolic Activation: HAMSTER, LIVER, S-9, AROCLOR 1254 (10%), Method: PREINCUBATION): inactive; negative
mutagenic call [2]: inactive; negative
mutagenic call (Strain/Indicator: TA100, Metabolic Activation: RAT, LIVER, S-9, AROCLOR 1254 (10%), Method: PREINCUBATION): inactive; negative
mutagenic call (Strain/Indicator: TA1535, Metabolic Activation: HAMSTER, LIVER, S-9, AROCLOR 1254 (10%), Method: PREINCUBATION): inactive; negative
mutagenic call (Strain/Indicator: TA1535, Metabolic Activation: NONE, Method: PREINCUBATION): inactive; negative
mutagenic call (Strain/Indicator: TA1535, Metabolic Activation: RAT, LIVER, S-9, AROCLOR 1254 (10%), Method: PREINCUBATION): inactive; negative
mutagenic call (Strain/Indicator: TA1537, Metabolic Activation: HAMSTER, LIVER, S-9, AROCLOR 1254 (10%), Method: PREINCUBATION): inactive; negative
mutagenic call (Strain/Indicator: TA1537, Metabolic Activation: NONE, Method: PREINCUBATION): inactive; negative
mutagenic call (Strain/Indicator: TA1537, Metabolic Activation: RAT, LIVER, S-9, AROCLOR 1254 (10%), Method: PREINCUBATION): inactive; negative

CC(=O)OCc1ccccc1N=Nc1ccc(N(C)C)cc1
mutagenic call (Strain/Indicator: TA98, Metabolic Activation: RAT, LIVER, S-9, POLYCHLORINATED BIPHENYLS, Method: PREINCUBATION): active; positive
mutagenic call (Strain/Indicator: TA100, Metabolic Activation: RAT, LIVER, S-9, POLYCHLORINATED BIPHENYLS, Method: PREINCUBATION): active; positive

Nc1nc(-c2ccc([N+](=O)[O-])cc2)nc2nc[nH]c12
mutagenic call (Strain/Indicator: TA98(1,8-DNP), Metabolic Activation: NONE, Method: PREINCUBATION): active; positive
mutagenic call (Strain/Indicator: TA98(1,8-DNP), Metabolic Activation: RAT, LIVER, S-9, PCB, Method: PREINCUBATION): active; positive
mutagenic call (Strain/Indicator: TA98(NR), Metabolic Activation: NONE, Method: PREINCUBATION): active; positive
mutagenic call (Strain/Indicator: TA98(NR), Metabolic Activation: RAT, LIVER, S-9, PCB, Method: PREINCUBATION): active; positive
mutagenic call [1]: active; positive
mutagenic call (Strain/Indicator: TA98, Metabolic Activation: RAT, LIVER, S-9, PCB, Method: PREINCUBATION): active; positive
mutagenic call (Strain/Indicator: TA100(1,8-DNP), Metabolic Activation: NONE, Method: PREINCUBATION): active; positive
mutagenic call (Strain/Indicator: TA100(1,8-DNP), Metabolic Activation: RAT, LIVER, S-9, PCB, Method: PREINCUBATION): active; positive
mutagenic call (Strain/Indicator: TA100(NR), Metabolic Activation: NONE, Method: PREINCUBATION): active; positive
mutagenic call (Strain/Indicator: TA100(NR), Metabolic Activation: RAT, LIVER, S-9, PCB, Method: PREINCUBATION): active; positive
mutagenic call [2]: active; positive
mutagenic call (Strain/Indicator: TA100, Metabolic Activation: RAT, LIVER, S-9, PCB, Method: PREINCUBATION): active; positive
mutagenic call (Strain/Indicator: YG1020, Metabolic Activation: NONE, Method: PREINCUBATION): active; positive
mutagenic call (Strain/Indicator: YG1020, Metabolic Activation: RAT, LIVER, S-9, PCB, Method: PREINCUBATION): active; positive
mutagenic call (Strain/Indicator: YG1021, Metabolic Activation: NONE, Method: PREINCUBATION): active; positive
mutagenic call (Strain/Indicator: YG1021, Metabolic Activation: RAT, LIVER, S-9, PCB, Method: PREINCUBATION): active; positive
mutagenic call (Strain/Indicator: YG1024, Metabolic Activation: NONE, Method: PREINCUBATION): active; positive
mutagenic call (Strain/Indicator: YG1024, Metabolic Activation: RAT, LIVER, S-9, PCB, Method: PREINCUBATION): active; positive
mutagenic call (Strain/Indicator: YG1025, Metabolic Activation: NONE, Method: PREINCUBATION): active; positive
mutagenic call (Strain/Indicator: YG1025, Metabolic Activation: RAT, LIVER, S-9, PCB, Method: PREINCUBATION): active; positive
mutagenic call (Strain/Indicator: YG1026, Metabolic Activation: NONE, Method: PREINCUBATION): active; positive
mutagenic call (Strain/Indicator: YG1026, Metabolic Activation: RAT, LIVER, S-9, PCB, Method: PREINCUBATION): active; positive
mutagenic call (Strain/Indicator: YG1029, Metabolic Activation: NONE, Method: PREINCUBATION): active; positive
mutagenic call (Strain/Indicator: YG1029, Metabolic Activation: RAT, LIVER, S-9, PCB, Method: PREINCUBATION): active; positive
